Reference: US9630977B2, “Cephalosporin derivatives and pharmaceutical compositions thereof” (Legochem Biosciences, Inc., priority 2011, dated 2017)
Converted amounts (≈) assume the structure as drawn. Read-outs that look alike come from different tables or passages of the source.

Columns and labels:
Assay in all cases: In vitro antibacterial activity test (broth microdilution)
Format in all cases: cell-based
[1] = tested on: A. baumannii 46
Protocol: (§1) To evaluate antibacterial activity of each of the compounds of Examples 1 to 68, in vitro antibacterial activity test was performed.
(§2) The in vitro antibacterial activity was evaluated by measuring MIC90 (ug/mL) of each of the compounds of Examples 1 to 68, which is defined as the lowest concentration of an antibiotic that will inhibit the visible growth of 90% of microorganisms after incubation as compared with a control group to which the antibiotic is not treated. MIC90 values were measured by the broth microdilution method developed by the Clinical and Laboratory Standards Institute (CLSI) (see CLSI M7-A5, Methods for Dilution Antimicrobial Susceptibility Test for Bacteria that Grow Aerobically-Fifth Edition (2000): CLSI, Villanova, Pa.).
(§3) In vitro antibacterial activity was measured with respect to the following 19 clinical isolates: M. catarrhalis; P. aeruginosa (5 strains); K. pneumoniae (6 strains); A. baumannii (3 strains); E. coli (2 strains); A. calcoaceticus; and E. cloacae.
(§4) Test compounds each (the cephalosporin derivative compounds prepared in Examples 1 to 68) were dissolved in DMSO at the concentration of 10,240 ug/mL, were diluted by two fold with DMSO, and then were diluted by twenty fold with sterilized distilled water. The final concentration in the antibacterial activity test was in the range of […] to 128 ug/mL, and the final concentration of DMSO used as an adjuvant was 2.5% (V/V).

[2] = tested on: A. baumannii 49
Protocol: as §1, §2, §3, §4

[3] = tested on: A. baumannii 52; details: Acinetobacter baumannii
Protocol: as §1, §2, §3, §4

[4] = tested on: A. calcoaceticus ATCC15473; details: Acinetobacter calcoaceticus
Protocol: as §1, §2, §3, §4

[5] = tested on: E. cloacae β19; details: Enterobacter cloacae
Protocol: as §1, §2, §3, §4

[6] = tested on: E. coli AG100; details: Escherichia coli
Protocol: as §1, §2, §3, §4

[7] = tested on: E. coli β4; details: Escherichia coli
Protocol: as §1, §2, §3, §4

[8] = tested on: K. pneumoniae 2011E; details: Klebsiella pneumoniae, 2011E
Protocol: as §1, §2, §3, §4

[9] = tested on: K. pneumoniae β10; details: Klebsiella pneumoniae
Protocol: as §1, §2, §3, §4

[10] = tested on: K. pneumoniae β11; details: Klebsiella pneumoniae
Protocol: as §1, §2, §3, §4

[11] = tested on: K. pneumoniae β13; details: Klebsiella pneumoniae
Protocol: as §1, §2, §3, §4

[12] = tested on: K. pneumoniae β14; details: Klebsiella pneumoniae
Protocol: as §1, §2, §3, §4

[13] = tested on: K. pneumoniae β9; details: Klebsiella pneumoniae
Protocol: as §1, §2, §3, §4

[14] = tested on: M. catarrhalis 2524; details: Moraxella catarrhalis
Protocol: as §1, §2, §3, §4

[15] = tested on: P. aeruginosa 1912E; details: Pseudomonas aeruginosa, 1912E
Protocol: as §1, §2, §3, §4

[16] = tested on: P. aeruginosa 37; details: Pseudomonas aeruginosa, 37, P. aeruginosa 37
Protocol: as §1, §2, §3, §4

[17] = tested on: P. aeruginosa 40
Protocol: as §1, §2, §3, §4

[18] = tested on: P. aeruginosa 43; details: Pseudomonas aeruginosa
Protocol: as §1, §2, §3, §4

[19] = tested on: P. aeruginosa 6065Y; details: Pseudomonas aeruginosa
Protocol: as §1, §2, §3, §4

[20] = Acinetobacter baumannii, 46, A. baumannii 46
[21] = Acinetobacter baumannii, 49, A. baumannii 49
[22] = ATCC15473, A. calcoaceticus ATCC15473

SMILES	MIC90 [1, 20] [µg/mL]	MIC90 [2, 21] [µg/mL]	MIC90 [3]; 52 [µg/mL]	MIC90 [4, 22] [µg/mL]	MIC90 [5] [µg/mL]	MIC90 ([6]; AG100) [µg/mL]	MIC90 [7] [µg/mL]	MIC90 [8] [µg/mL]	MIC90 [9] [µg/mL]	MIC90 [10] [µg/mL]	MIC90 [11] [µg/mL]	MIC90 [12] [µg/mL]	MIC90 [13] [µg/mL]	MIC90 [14]; 2524 [µg/mL]	MIC90 [15] [µg/mL]	MIC90 [16] [µg/mL]	MIC90 ([17]; Pseudomonas aeruginosa, 40) [µg/mL]	MIC90 [18]; 43 [µg/mL]	MIC90 ([19]; 6065Y) [µg/mL]	also measured
CC(C)(O/N=C(\C(=O)N[C@@H]1C(=O)N2C(C(=O)[O-])=C(/C=C/C[n+]3cnc(N)c(NCCN)c3)CSC12)c1nsc(N)n1)C(=O)O (some centres unmarked) [Compound 55]	0.5 (≈ 0.772 µM)	64 (≈ 98.8 µM)	64 (≈ 98.8 µM)	0.125 (≈ 0.193 µM)	8 (≈ 12.4 µM)	< 0.0625	< 0.0625	< 0.0625	0.125 (≈ 0.193 µM)	128 (≈ 198 µM)	0.25 (≈ 0.386 µM)	0.5 (≈ 0.772 µM)	2 (≈ 3.09 µM)	< 0.0625	1 (≈ 1.54 µM)	4 (≈ 6.18 µM)	1 (≈ 1.54 µM)	> 128	8 (≈ 12.4 µM)	
CC(C)(O/N=C(\C(=O)N[C@@H]1C(=O)N2C(C(=O)[O-])=C(/C=C/C[n+]3cnc(N)c(NCCCN)c3)CSC12)c1nsc(N)n1)C(=O)O (some centres unmarked) [Compound 56]	4 (≈ 6.04 µM)	32 (≈ 48.4 µM)	16 (≈ 24.2 µM)	1 (≈ 1.51 µM)	4 (≈ 6.04 µM)	0.5 (≈ 0.756 µM)	1 (≈ 1.51 µM)	2 (≈ 3.02 µM)	1 (≈ 1.51 µM)	2 (≈ 3.02 µM)	1 (≈ 1.51 µM)	2 (≈ 3.02 µM)	1 (≈ 1.51 µM)	< 0.0625	2 (≈ 3.02 µM)	8 (≈ 12.1 µM)	8 (≈ 12.1 µM)	64 (≈ 96.7 µM)	16 (≈ 24.2 µM)	
CC(C)(O/N=C(\C(=O)N[C@@H]1C(=O)N2C(C(=O)[O-])=C(/C=C/C[n+]3cnc(N)c(NC(=O)CCNC(=O)c4cc(=O)c(O)c[nH]4)c3)CSC12)c1csc(N)n1)C(=O)O (some centres unmarked) [Compound 13]																				MIC90 ([1]; Acinetobacter baumannii, A. baumannii 46, read-out: MIC90): 8 µg/mL (≈ 9.85 µM); MIC90 ([2]; Acinetobacter baumannii, A. baumannii 49, read-out: MIC90): > 128 µg/mL; MIC90 ([3]; A. baumannii 52, read-out: MIC90): 128 µg/mL (≈ 158 µM); MIC90 ([4]; A. calcoaceticus ATCC15473, read-out: MIC90): 2 µg/mL (≈ 2.46 µM); MIC90 ([5]; read-out: MIC90): 8 µg/mL (≈ 9.85 µM); MIC90 ([6]; AG100, E. coli AG100, read-out: MIC90): 1 µg/mL (≈ 1.23 µM); MIC90 ([7]; read-out: MIC90): 2 µg/mL (≈ 2.46 µM); MIC90 ([8]; K. pneumoniae 2011E, read-out: MIC90): 2 µg/mL (≈ 2.46 µM); MIC90 ([9]; K. pneumoniae β10, read-out: MIC90): 1 µg/mL (≈ 1.23 µM); MIC90 ([10]; K. pneumoniae β11, read-out: MIC90): 64 µg/mL (≈ 78.8 µM); MIC90 ([11]; K. pneumoniae β13, read-out: MIC90): 1 µg/mL (≈ 1.23 µM); MIC90 ([12]; read-out: MIC90): 8 µg/mL (≈ 9.85 µM); MIC90 ([13]; K. pneumoniae β9, read-out: MIC90): 1 µg/mL (≈ 1.23 µM); MIC90 ([14]; M. catarrhalis 2524, read-out: MIC90): 2 µg/mL (≈ 2.46 µM); MIC90 ([15]; read-out: MIC90): 2 µg/mL (≈ 2.46 µM); MIC90 ([16]; read-out: MIC90): 8 µg/mL (≈ 9.85 µM); MIC90 ([17]; Pseudomonas aeruginosa, 40, P. aeruginosa 40, read-out: MIC90): 2 µg/mL (≈ 2.46 µM); MIC90 ([18]; P. aeruginosa 43, read-out: MIC90): 4 µg/mL (≈ 4.93 µM); MIC90 ([19]; read-out: MIC90): 8 µg/mL (≈ 9.85 µM)
CC(C)(O/N=C(\C(=O)N[C@@H]1C(=O)N2C(C(=O)[O-])=C(/C=C/C[n+]3cnc(N)c(NC(=O)CCCN)c3)CSC12)c1nsc(N)n1)C(=O)O (some centres unmarked) [Compound 65]	64 (≈ 92.8 µM)	64 (≈ 92.8 µM)	64 (≈ 92.8 µM)	0.5 (≈ 0.725 µM)	32 (≈ 46.4 µM)	< 0.0625	0.125 (≈ 0.181 µM)	0.25 (≈ 0.362 µM)	1 (≈ 1.45 µM)	> 128	2 (≈ 2.9 µM)	2 (≈ 2.9 µM)	16 (≈ 23.2 µM)	< 0.0625	2 (≈ 2.9 µM)	32 (≈ 46.4 µM)	4 (≈ 5.8 µM)	> 128	32 (≈ 46.4 µM)	
C[C@H](O/N=C(\C(=O)N[C@@H]1C(=O)N2C(C(=O)[O-])=C(C[n+]3cnc(NCCN)c(NCCNC(=O)c4cc(=O)c(O)cn4O)c3)CSC12)c1nc(N)sc1Cl)C(=O)O (some centres unmarked) [Compound 21]	16 (≈ 19.1 µM)	8 (≈ 9.56 µM)	2 (≈ 2.39 µM)	1 (≈ 1.19 µM)	16 (≈ 19.1 µM)	0.5 (≈ 0.597 µM)	4 (≈ 4.78 µM)	4 (≈ 4.78 µM)	2 (≈ 2.39 µM)	8 (≈ 9.56 µM)	2 (≈ 2.39 µM)	16 (≈ 19.1 µM)	2 (≈ 2.39 µM)	0.125 (≈ 0.149 µM)	4 (≈ 4.78 µM)	32 (≈ 38.2 µM)	8 (≈ 9.56 µM)	2 (≈ 2.39 µM)	4 (≈ 4.78 µM)	
